From US20060194971A1, “Anethole dithiolethione and other dithiolethiones for the treatment of conditions associated with dysfunction of monoamine neruotransmission” (priority 2005, published 2006)
Where two headings read alike, the source gives them in different places.

How the values were obtained:
[1] = biological target: T1, monoamine oxidase-B (MAO-B) (Rattus norvegicus, UniProt P19643); experiment: MAO-B activity in astroglial cell extracts in the presence of clorgyline, Amplex Red MAO assay; type: biochemical
T1 construct: in cellular extracts obtained from cultures of neonatal rat striatal astroglial cells; endogenous in cells; host or cells: cultured neonatal rat striatal astroglial cells (supernatant of sonicated lysate)
T1 sequence (P19643 1-520): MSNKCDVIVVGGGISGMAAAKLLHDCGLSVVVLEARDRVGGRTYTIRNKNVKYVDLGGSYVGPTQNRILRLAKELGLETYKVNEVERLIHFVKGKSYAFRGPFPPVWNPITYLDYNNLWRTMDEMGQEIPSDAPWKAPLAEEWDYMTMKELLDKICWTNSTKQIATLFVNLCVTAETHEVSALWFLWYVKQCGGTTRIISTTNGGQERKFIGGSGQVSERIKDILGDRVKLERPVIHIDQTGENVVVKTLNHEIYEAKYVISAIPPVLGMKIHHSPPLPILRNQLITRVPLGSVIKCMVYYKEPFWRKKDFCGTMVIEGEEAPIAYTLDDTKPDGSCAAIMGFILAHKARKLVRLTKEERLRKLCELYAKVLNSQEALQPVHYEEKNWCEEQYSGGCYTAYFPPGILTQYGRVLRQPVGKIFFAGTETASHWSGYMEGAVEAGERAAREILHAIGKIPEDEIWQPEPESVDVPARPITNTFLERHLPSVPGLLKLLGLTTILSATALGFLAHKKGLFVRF
Protocol: (§1) Neonatal rat striatal astroglial cells were used as a source for both MAO-A and MAO-B activity (Carlo et al., Brain Res 711, 175-183, 1996). Astroglial cells were cultured as described (Langeveld et al., Neurosci. Lett. 192, 13-16, 1995). Following one week in culture in 5% CO2/95% air and at 37° C., cells were trypsinized and sonicated in ice cold 25 mM Tris-HCl buffer (pH 7.4) containing 1 mM EDTA. Thereafter, the obtained lysates were centrifuged for 5 min at 1 0,000 g and 4° C., and aliquots of the supernatant fractions were taken for determination of MAO activity using the Amplex Red MAO assay kit (Molecular Probes, Leiden, The Netherlands), which is based on the method described by Zhou and Panchuk-Voloshina (Anal. Biochem. 253, 169-174, 1997). Measurements were performed according to the manufacturers instructions. Briefly, prior to addition of the substrate, the samples were incubated for 30 min in a 96 well plate with drugs or solvent (total volume of 50 μl). Thereafter, 50 μl Amplex Red reagent was added containing 2 U/ml horseradisch peroxidase (HRP), p-tyramine HCl (2 mM, substrate for both MAO A and MAO B (Youdim and Finberg, Biochem. Pharmacol., 41, 155-162, 1991) and Amplex red (10 mM). Under these circumstances, via MAO-catalyzed oxidation of tyramine in a HRP-coupled reaction, Amplex red is converted to fluorescent resorufin. To measure MAO activity, the time-dependent increase in resorufin formation was determined at 2 min time intervals for 30 min at room temperature in a fluorescence microplate reader (BMG Labtechnologies GmbH, Germany), using excitation at 544 nm and emission at 595 nm. […] For calculation of results, the data were corrected for background readings (i.e., in the absence of the MAO substrate tyramine), and expressed as the increase in arbitrary fluorescence units/min. Protein content was determined according to the method of Bradford et al., (Anal. Biochem. 72, 248-254, 1976), using BSA as a standard. Statistical comparisons between groups were made using a one-way analysis of variance (ANOVA) followed by a Newman-Keuls post-hoc test. P values <0.01 were considered significant.
(§2) MAO activity and effects of the drugs thereon were determined as detailed above.
(§3) Data are expressed as percentages of respective controls, and are averages of two till five independent experiments performed in triplicate.

[2] = test system: total monoamine oxidase (Σ MAO); conditions: for Σ MAO activity (% inhibition): solvent 0.03% DMSO only, neonatal rat striatal astroglial cell extracts
Protocol: as §1, §2, §3

[3] = biological target: T2, monoamine oxidase A (MAO-A) (Rattus norvegicus, UniProt P21396); conditions: upon selective and complete blockade of MAO-B activity with deprenyl
T2 sequence (P21396 1-526): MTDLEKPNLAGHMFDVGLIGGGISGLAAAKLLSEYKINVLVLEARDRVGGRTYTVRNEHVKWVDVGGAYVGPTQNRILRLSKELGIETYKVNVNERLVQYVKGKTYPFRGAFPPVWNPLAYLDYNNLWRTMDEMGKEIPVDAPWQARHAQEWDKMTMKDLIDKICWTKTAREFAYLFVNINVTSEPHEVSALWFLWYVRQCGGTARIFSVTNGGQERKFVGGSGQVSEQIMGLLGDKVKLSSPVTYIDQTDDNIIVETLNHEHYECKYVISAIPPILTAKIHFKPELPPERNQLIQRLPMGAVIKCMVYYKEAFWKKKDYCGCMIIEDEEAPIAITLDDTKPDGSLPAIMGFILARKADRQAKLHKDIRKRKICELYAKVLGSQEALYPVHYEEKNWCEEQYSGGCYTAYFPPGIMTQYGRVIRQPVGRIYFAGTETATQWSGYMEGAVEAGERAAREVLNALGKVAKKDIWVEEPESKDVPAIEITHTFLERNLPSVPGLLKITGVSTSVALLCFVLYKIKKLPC
Protocol: as §1, §2, §3

[4] = test system: MAO-B; experiment: MAO-B inhibitory activity measured at CEREP (protocol of Salach); type: biochemical
Protocol: MAO-B inhibitory activity of the compounds A1-D6 were measured at CEREP (Paris, France), according to the protocol described by J. L. Salach, Arch. Biochem. Biophys., 192, 128,1979.
MAO-B inhibitory activity of the compounds A1-D6 AS measured at CEREP (Paris, France), according to the protocol described by J. L. Salach, Arch. Biochem. Biophys., 192, 128, 1979.

[5] = read-out: MAO-B activity (% inhibition)

With COc1ccc(-c2cc(=S)ss2)cc1 [ADT, 5-(p-methoxyphenyl)-3H-1,2-dithiole-3-thione] the “concentration-effect relationship for MAO-B compared to inhibition of total MAO activity” value ([1]; following selective and complete blockade of MAO-A activity by clorgyline) was “identical concentration-effect relationships”, the inhibition at 0.03 µM [1, 5] was 0% and the inhibition at 0.1 µM [1, 5] was 15%. For the same compound, the inhibition at 0.3 µM [1, 5] was 40%, the inhibition at 1 µM [1, 5] was 73% and the inhibition at 3 µM [1, 5] was 89%. For the same compound, the inhibition at 10 µM [1, 5] was 96%, the inhibition at 30 µM [1, 5] was 100% and the “Σ MAO activity (% inhibition)” value ([2]; 0.1 μM) was 14%. For the same compound, the “Σ MAO activity (% inhibition)” value ([2]; 0.3 μM) was 35%, the “Σ MAO activity (% inhibition)” value ([2]; 1 μM) was 60% and the “Σ MAO activity (% inhibition)” value ([2]; 3 μM) was 70%. For the same compound, the “Σ MAO activity (% inhibition)” value ([2]; 10 μM) was 81%, the “Σ MAO activity (% inhibition)” value ([2]; 30 μM) was 85% and the “maximal effect on total MAO activity (inhibition)” value ([2]; at a concentration of 30 μM) was about 80%. For the same compound, the IC50 ([2]; read-out: apparent IC50, inhibition of total astroglial MAO activity, substrate tyramine, astroglial cell extracts) was about 0.5 µM and the “effect on MAO-A activity” value [3] was “no statistically significant effect”.
In the case of CCCCCCOc1ccc(-c2cssc2=S)cc1 [Compound A1], the melting point is reported as 121 °C and the “MAO-B %-inhibition at 10^−5 M” value [4] is reported as 100%.
With S=c1ssc(N2CCN(c3cccc4c3OCCO4)CC2)c1-c1ccccc1 [Compound B1] the “MAO-B %-inhibition at 10^−5 M” value [4] was 65%.
In the case of Cc1ccc(-c2c(N3CCN(c4ccccc4)CC3)ssc2=S)cc1 [Compound B3], the “MAO-B %-inhibition at 10^−5 M” value [4] is reported as 54%.
For CCN(CC)c1ccc(C=Cc2cc(=S)ss2)cc1 [Compound C1], the “MAO-B %-inhibition at 10^−5 M” value [4] was 52%.
In the case of S=c1cc(C=Cc2ccc3ccccc3n2)ss1 [Compound C2], the “MAO-B %-inhibition at 10^−5 M” value [4] is reported as 56%.
In the case of S=c1ccss1 [Compound D3T, 3H-1,2-dithiole-3-thione], the “maximally effective concentration, blockade of MAO-B activity” value ([1]; in the presence of clorgyline) is reported as 300 µM, the inhibition at 1 µM [1, 5] is reported as 2% and the inhibition at 3 µM [1, 5] is reported as 6%. For the same compound, the inhibition at 10 µM [1, 5] was 24%, the inhibition at 30 µM [1, 5] was 59% and the inhibition at 100 µM [1, 5] was 82%. For the same compound, the inhibition at 300 µM [1, 5] was 92%, the inhibition at 1000 µM [1, 5] was 91% and the IC50 ([1]; read-out: apparent IC50, blockade of MAO-B activity) was about 20 µM.
